# Data as given in article PMC10305115, “Development of a Minimalistic Physiologically Based Pharmacokinetic (mPBPK) Model for the Preclinical Development of Spectinamide Antibiotics” (Pharmaceutics, 2023).
# Read-outs that look alike come from different tables or passages of the source.
# Tests used:
# [1] = tested on: murine-lung-derived dendritic cells and a BALB/c-derived monocyte macrophage cell line; conditions: cited from earlier work
# [2] = Parallel artificial membrane permeability assay (PAMPA); format: in vitro ADME; conditions: passive permeability could not be determined
# [3] = Simcyp multicompartment lung and granuloma model simulation; conditions: Simcyp model input parameter (Table S1), human PBPK model
# plasma proteins [4] = assay: Plasma protein binding by equilibrium dialysis (RED device), mouse plasma; format: in vitro ADME, BALB/c mice
# Procedure: (§1) Plasma protein binding was measured by equilibrium dialysis using a RED device (8 kDa molecular cutoff; Thermo Scientific, Rockford, IL, USA) containing plasma and buffer chambers for dialysis and a base plate. Two concentrations (0.5 and 5 mg/L) of 1599 and 1810 were prepared in mouse plasma from BALB/c mice and rat plasma from Sprague-Dawley rats, and an aliquot of 300 µL was added in the plasma chamber in duplicate. A 500 µL aliquot of PBS was added in the buffer chamber for dialysis. Then, the base plate was covered with sealing tape and incubated at 37 °C at approximately 100 rpm on an orbital shaker for 4 h to achieve equilibrium. After incubation, 50 µL of each sample was pipetted from the plasma and buffer chambers into separate micro-centrifuge tubes. A total of 50 µL of plasma was added to the buffer samples and an equal volume of PBS to the collected plasma samples and vortexed. Samples were processed by protein precipitation and analyzed for bound and unbound drug concentrations by liquid chromatography-tandem mass spectrometry (LC-MS/MS). Ranitidine (0.5 and 5 mg/L) was included as a positive control. The fraction of compound unbound to plasma proteins (fu) was calculated from the measured concentrations in the plasma and buffer chambers using the following equation:(1) fu=1−C(Plasma Chamber)−C(Buffer Chamber)/C(Plasma Chamber)
# [5] = Rat (225 g); Sprague-Dawley blood, 37 °C, 1 h
# Procedure: (§3) Fresh blood was collected from BALB/c mice and Sprague-Dawley rats via cardiac puncture in tubes with lithium heparin as anticoagulant. Hematocrit was measured using a VetScan HM5 hematology analyzer (Abaxis, Union City, CA, USA). […] Aliquots of pre-warmed whole blood and plasma were spiked with the test compounds and incubated at 37 °C. After 1 h of incubation, the incubated whole blood was removed, and the plasma was separated by centrifugation. Aliquots of the incubated control plasma were also removed after 1 h of incubation. Plasma samples were treated with 8 volumes of ice-cold methanol containing internal standard (100 ng/mL spectinomycin) and analyzed for drug concentrations by LC-MS/MS [12].
# (§4) The whole blood to plasma ratio k(b/p) was calculated by taking the ratio of the concentrations measured in the control plasma over the concentrations measured in the plasma centrifuged from the incubated whole blood, as shown in Equation (2). The erythrocyte to plasma partitioning coefficient k(RBC/p) was calculated from the whole blood to plasma ratio by accounting for the measured hematocrit, as shown in Equation (3):(2) k(b/p)=CCP/CP (3) k(RBC/p)=1+1/HCCP/CP−1 where CCP is the concentration of the test compound in the control plasma, CP is the concentration of the test compound in the plasma centrifuged from the incubated whole blood, and H is the measured hematocrit value.
# [6] = Subcutaneous PBPK model predictions vs observed plasma concentrations in Mtb infected mice; format: in vivo, BALB/c mice; conditions: SC dose-ranging and dose-fractionation studies
# [7] = Mouse (20 g); BALB/c blood, 37 °C, 1 h
# Procedure: as §3, §4
# [8] = healthy rats, plasma, IV SD 10 mg/kg; cited from earlier work
# ELF proteins [9] = assay: Fraction unbound in epithelial lining fluid calculated by Poulin and Theil equation, mouse; conditions: calculated from fu in plasma and albumin ratio plasma/ELF
# Procedure: (§2) For intravenous administration, the bolus dose was assumed to be mixed instantaneously into the venous blood. For subcutaneous administration, the dose was administered as an external compartment, absorbed into the venous compartment via a first-order absorption rate constant and a bioavailability component. For intrapulmonary aerosol administration, we have modified the lung tissue by adding the epithelial lining fluid (ELF) sub-compartment, as shown in Figure 2. The physiological volume of the ELF sub-compartment was obtained from the literature. The dose was administered as an external compartment, absorbed into the ELF compartment via a first-order absorption rate constant and a bioavailability component. The compound was assumed to be bound to the ELF proteins, and only the unbound fraction was distributed to the other sub-compartments of the lungs and ultimately to the systemic circulation. The fraction unbound in ELF was calculated from the fraction unbound in plasma and the albumin ratio between plasma and ELF using the equation described by Poulin and Theil.
# plasma proteins [10] = assay: Plasma protein binding by equilibrium dialysis (RED device), rat plasma; format: in vitro ADME, Sprague-Dawley rats; conditions: 0.5 and 5 mg/L, 37 °C, 4 h
# Procedure: as §1
# [11] = healthy rats, plasma, IV SD 10 mg/kg
# Description: After the successful inter-route extrapolation of the model, we scaled the PBPK model between species by extending the model to rats. This was accomplished by incorporating the physiological parameters of a 225 g rat and updating the experimentally assessed drug-specific parameters k(b/p) and fu.
# [12] = cited from earlier work; for AUCinf Liver Observed / AUCinf Lung Observed / AUCinf Observed / AUCinf Spleen Observed: healthy mice; for AUCinf Observed: plasma
# [13] = Minimalistic PBPK model, mouse (fitting and simulation); conditions: for F Bioavailability component / Ka 1st order absorption rate constant / AUCinf Liver Fold Difference / AUCinf Lung Fold Difference / AUCinf Fold Difference (predicted vs observed) / AUCinf Spleen Fold Difference: healthy mice; for AUCinf Fold Difference (predicted vs observed): plasma
# ELF proteins [14] = assay: Fraction unbound in epithelial lining fluid calculated by Poulin and Theil equation, rat; conditions: calculated from fu in plasma and albumin ratio plasma/ELF
# Procedure: as §2
# [15] = Integrated mouse and rat PBPK model, inter-animal variability; conditions: Intravenous Estimate (%RSE); simultaneous fit of mouse and rat plasma and tissue data
# [16] = Intratracheal Estimate (%RSE), intrapulmonary aerosol single dose 50 mg/kg
# [17] = Intravenous Estimate (%RSE), model fitted to IV single dose 10 mg/kg plasma and tissue data
structure (smiles),measurement,setting,value
"CN[C@@H]1[C@H](O)[C@H](NC)[C@H]2O[C@]3(O)[C@H](O[C@@H]2[C@H]1O)O[C@H](C)C[C@H]3NC(=O)Cc1ccc(Cl)cn1 [Spectinamide 1599, 2-(5-chloroypyridin-2-yl)-N-((2R,4R,4aS,5aR,6S,7S,8R,9S,9aR, 10aS)-4a,7,9-trihydroxy-2-methyl-6,8-bis(methyl-amino)decahydro-2H-benzo[b]pyrano [2,3-e] [1,4]dioxin-4-yl)acetamide]",intracellular uptake,[1],concentration-dependent intracellular uptake
same,PAMPA concentrations in the acceptor compartment,[2],below the limit of detection
same,CLR renal clearance,[3],3.27 L/h
same,fuPlasma fraction unbound in plasma,"plasma proteins [4]; Mouse plasma, 0.5 and 5 mg/L, 37 °C, 4 h",0.602
same,plasma protein binding,plasma proteins [4]; mouse and rat,low plasma protein binding
same,k(b/p) blood to plasma ratio,[5],0.812
same,difference in pharmacokinetics between healthy and infected mice,[6],no significant difference
same,k(b/p) blood to plasma ratio,[7],0.552
same,AUCinf Observed,[8],19800 ng·h/mL
same,fuELF fraction unbound in epithelial lining fluid,ELF proteins [9],0.948
same,fuPlasma fraction unbound in plasma,plasma proteins [10],0.563
same,AUCinf Fold Difference (predicted vs observed),[11],1.58
same,dose dependency of disposition,[12]; dose range of 10 to 400 mg/kg in mice,did not suggest any dose dependencies
same,AUCinf Liver Observed,[12]; IV QD5 10 mg/kg,19.6 µg·h/g
same,AUCinf Liver Observed,[12]; IV SD 10 mg/kg,19.9 µg·h/g
same,AUCinf Liver Observed,[12]; SC QD5 200 mg/kg,336 µg·h/g
same,AUCinf Liver Observed,[12]; SC SD 50 mg/kg,91.8 µg·h/g
same,AUCinf Lung Observed,[12]; IV QD5 10 mg/kg,4.05 µg·h/g
same,AUCinf Lung Observed,[12]; IV SD 10 mg/kg,3.79 µg·h/g
same,AUCinf Lung Observed,[12]; SC QD5 200 mg/kg,69.1 µg·h/g
same,AUCinf Lung Observed,[12]; SC SD 50 mg/kg,19.1 µg·h/g
same,AUCinf Observed,[12]; IPA BIW 50 mg/kg,14200 ng·h/mL
same,AUCinf Observed,[12]; IPA BIW 150 mg/kg,108000 ng·h/mL
same,AUCinf Observed,[12]; IPA QD5 10 mg/kg,3570 ng·h/mL
same,AUCinf Observed,[12]; IPA QD5 50 mg/kg,39800 ng·h/mL
same,AUCinf Observed,[12]; IPA QD5 150 mg/kg,96900 ng·h/mL
same,AUCinf Observed,[12]; IPA SD 10 mg/kg,5510 ng·h/mL
same,AUCinf Observed,[12]; IPA SD 50 mg/kg,23200 ng·h/mL
same,AUCinf Observed,[12]; IPA SD 150 mg/kg,59500 ng·h/mL
same,AUCinf Observed,[12]; IPA TIW 10 mg/kg,5360 ng·h/mL
same,AUCinf Observed,[12]; IPA TIW 50 mg/kg,24300 ng·h/mL
same,AUCinf Observed,[12]; IPA TIW 150 mg/kg,61700 ng·h/mL
same,AUCinf Observed,[12]; IV QD5 10 mg/kg,6370 ng·h/mL
same,AUCinf Observed,[12]; IV SD 10 mg/kg,7520 ng·h/mL
same,AUCinf Observed,[12]; SC QD5 200 mg/kg,227000 ng·h/mL
same,AUCinf Observed,[12]; SC SD 50 mg/kg,40400 ng·h/mL
same,AUCinf Spleen Observed,[12]; IV QD5 10 mg/kg,3.91 µg·h/g
same,AUCinf Spleen Observed,[12]; IV SD 10 mg/kg,3.42 µg·h/g
same,AUCinf Spleen Observed,[12]; SC QD5 200 mg/kg,110 µg·h/g
same,AUCinf Spleen Observed,[12]; SC SD 50 mg/kg,23.6 µg·h/g
same,estimated absorption half-life,"[13]; IPA administration site, mice",~ 8 min
same,bioavailability,"[13]; IPA administration, mice",33%
same,F Bioavailability component,[13]; [16],0.33 (2.03)
same,Ka 1st order absorption rate constant,[13]; [16],5.03 (4.53)
same,KC→IKidney 1st order back flux from cellular sub compartment of the kidney,[13]; [17],0.15 (31.0) 1/h
same,KC→ILiver 1st order back flux from cellular sub compartment of the liver,[13]; [17],0.061 (13.7) 1/h
same,KC→ILung 1st order back flux from cellular sub compartment of the lung,[13]; [17],0.028 (41.5) 1/h
same,KC→ISpleen 1st order back flux from cellular sub compartment of the spleen,[13]; [17],0.01 (106) 1/h
same,KC→Iothers 1st order back flux from cellular sub compartment of the other tissues,[13]; [17],7.0 × 10^−5 (142) 1/h
same,F Bioavailability component,[13]; Subcutaneous Estimate (%RSE),0.86 (6.15)
same,Ka 1st order absorption rate constant,[13]; Subcutaneous Estimate (%RSE),4.36 (7.86)
same,AUCinf Liver Fold Difference,[13]; IV QD5 10 mg/kg,1.58
same,AUCinf Liver Fold Difference,[13]; IV SD 10 mg/kg,1.2
same,AUCinf Liver Fold Difference,[13]; SC QD5 200 mg/kg,1.55
same,AUCinf Liver Fold Difference,[13]; SC SD 50 mg/kg,1.3
same,AUCinf Lung Fold Difference,[13]; IV QD5 10 mg/kg,1.39
same,AUCinf Lung Fold Difference,[13]; IV SD 10 mg/kg,1.65
same,AUCinf Lung Fold Difference,[13]; SC QD5 200 mg/kg,1.42
same,AUCinf Lung Fold Difference,[13]; SC SD 50 mg/kg,1.41
same,AUCinf Fold Difference (predicted vs observed),[13]; IPA BIW 50 mg/kg,1.70
same,AUCinf Fold Difference (predicted vs observed),[13]; IPA BIW 150 mg/kg,1.49
same,AUCinf Fold Difference (predicted vs observed),[13]; IPA QD5 10 mg/kg,1.36
same,AUCinf Fold Difference (predicted vs observed),[13]; IPA QD5 50 mg/kg,1.64
same,AUCinf Fold Difference (predicted vs observed),[13]; IPA QD5 150 mg/kg,1.33
same,AUCinf Fold Difference (predicted vs observed),[13]; IPA SD 10 mg/kg,1.13
same,AUCinf Fold Difference (predicted vs observed),[13]; IPA SD 50 mg/kg,1.05
same,AUCinf Fold Difference (predicted vs observed),[13]; IPA SD 150 mg/kg,1.23
same,AUCinf Fold Difference (predicted vs observed),[13]; IPA TIW 10 mg/kg,1.11
same,AUCinf Fold Difference (predicted vs observed),[13]; IPA TIW 50 mg/kg,1.00
same,AUCinf Fold Difference (predicted vs observed),[13]; IPA TIW 150 mg/kg,1.18
same,AUCinf Fold Difference (predicted vs observed),[13]; IV QD5 10 mg/kg,1.39
same,AUCinf Fold Difference (predicted vs observed),[13]; IV SD 10 mg/kg,1.18
same,AUCinf Fold Difference (predicted vs observed),[13]; SC QD5 200 mg/kg,1.43
same,AUCinf Fold Difference (predicted vs observed),[13]; SC SD 50 mg/kg,1.02
same,AUCinf Spleen Fold Difference,[13]; IV QD5 10 mg/kg,1.44
same,AUCinf Spleen Fold Difference,[13]; IV SD 10 mg/kg,1.47
same,AUCinf Spleen Fold Difference,[13]; SC QD5 200 mg/kg,1.14
same,AUCinf Spleen Fold Difference,[13]; SC SD 50 mg/kg,1.11
same,estimated first-order absorption half-life,"[13]; subcutaneous administration site, mice",~ 10 min
same,bioavailability,"[13]; subcutaneous administration, mice",86%
same,fuELF fraction unbound in epithelial lining fluid,ELF proteins [14],0.940
same,ω KI→CLiver inter-animal variability on KI→CLiver,[15],0.61 (29.8)
same,ω KI→CLung inter-animal variability on KI→CLung,[15],0.87 (30.6)
same,ω KI→COther inter-animal variability on KI→COthers,[15],0.48 (21.6)
same,ω KI→CSpleen inter-animal variability on KI→CSpleen,[15],0.66 (41.0)
